Measured values taken from patent publication US10696949B2, “Systems and methods for canine liver modeling” (Hepregen Corporation, priority 2015, dated 2020).
Read-outs that look alike come from different tables or passages of the source.

Legend:
Type in all cases: cell-based
[1] = test system: dog hepatocytes; assay: Dog hepatocyte hypertrophy in standard HepatoPac micropatterned co-culture
Method: In order to create micropatterned co-cultures, hepatocytes were seeded in serum-free hepatocyte medium on collagen-patterned 24-well cell culture plates, resulting in a hepatocyte pattern due to selective cell adhesion. The cells were washed with media 2 to 6 hours later to remove unattached cells and incubated with serum supplemented hepatocyte medium overnight. 3T3-J2 or BJ fibroblasts were seeded in serum-supplemented fibroblast medium 12-24 hours later to create co-cultures. Culture medium was replaced with hepatocyte medium 24 hours after fibroblast seeding and subsequently replaced every one to two days. Spent media was stored for biochemical assays.
(§1) Hepatocyte growth factor (HGF) was implicated as one of the contributing factors causing dog hepatocyte hypertrophy and motility in the co-culture (data not shown). […] In summation, chemical inhibition (for example, via dexamethasone and TGFB2) of HGF secretion in the standard HepatoPac™ format is sufficient to abrogate hepatocyte hypertrophy.

[2] = test system: HGF; assay: HGF secretion in standard HepatoPac co-culture under chemical inhibition; settings: standard HepatoPac format
Excerpt: as §1

[3] = test system: hepatocytes; assay: Hepatocyte hypertrophy in sandwich cultures with soluble HGF; settings: soluble HGF alone, data not shown
Excerpt: as §1

Compound	dog hepatocyte hypertrophy [1]	HGF level (secretion) [2]	dog hepatocyte hypertrophy ([1]; standard HepatoPac format, 3T3-J2 stromal cells)	hepatocyte hypertrophy [3]
TGFB2: HGF-inhibiting agent; known chemical inhibitor of HGF secretion	diminished hypertrophy	HGF knockdown		
O=C1c2ccccc2-n2c1nc1ccccc1c2=O [tryptanthrin]		reduction in HGF	decreased dog hepatocyte hypertrophy	
Soluble human HGF: Hepatocyte growth factor, soluble human protein added to sandwich cultures				did not result in hepatocyte hypertrophy
C[C@@H]1C[C@H]2[C@@H]3CCC4=CC(=O)C=C[C@]4(C)[C@@]3(F)[C@@H](O)C[C@]2(C)[C@@]1(O)C(=O)CO [dexamethasone]	diminished hypertrophy			
C[C@H](CCC(=O)O)[C@H]1CC[C@H]2[C@@H]3[C@@H](O)C[C@@H]4C[C@H](O)CC[C@]4(C)[C@H]3CC[C@]12C [UDCA]	decreased dog hepatocyte hypertrophy	reduction in HGF		
